Results taken from ChEMBL document CHEMBL3351605, “Biased multicomponent reactions to develop novel bromodomain inhibitors” (J Med Chem, 2014).

Experiments:
[1] = Cytotoxicity against BRD4-NUT-expressing human NMC-797 cells assessed as reduction in cell viability after 3 days by ATPlite assay; format: functional, cell-based; conditions: NMC-797, 72 h
[2] = molecular target: T1, Bromodomain-containing protein 4 (Homo sapiens, UniProt O60885); test: Binding affinity to BRD4 (unknown origin) by isothermal titration […]
[3] = molecular target: T1, Bromodomain-containing protein 4; test: Inhibition of BRD4 (unknown origin) by biotinylated-JQ1 based AlphaScreen BRD binding assay

Row | Structure (SMILES) | EC50 [1] [µM] | Kd [2] [µM] | IC50 [3] [µM]
1 | Cc1noc(C)c1-c1ccc(-c2nc3cnccn3c2NC(C)(C)C)cc1 | 0.724 | 0.55 | 0.637
2 | COc1ccc(Nc2c(-c3ccc(-c4c(C)noc4C)cc3)nc3cc(OC)ncn23)cc1 | 11.8 |  | 
3 | CCCCN1C(=O)c2ccccc2NC(=O)C1c1ccc(-c2c(C)noc2C)c(OC)c1 (centres undefined) | 9.91 |  | 
4 | Cc1noc(C)c1-c1ccc(-c2nc3cnccn3c2NC(C)(C)C)nc1 | 8.29 |  | 
5 | COc1ccc(Nc2c(-c3ccc(-c4c(C)noc4C)cc3)nn3ccncc23)cc1 |  |  | 7.86
6 | Cc1noc(C)c1-c1cccc(C2Nc3ccccc3NC3=C2C(=O)OC3)c1 (centres undefined) | > 100 |  | 
7 | Cc1noc(C)c1-c1ccc(-c2nc3ccccn3c2NC(C)(C)C)cc1 | 2.04 |  | 
8 | COc1ccc(-c2cc(-c3ccc(-c4c(C)noc4C)cc3)nc(-c3ccccc3)n2)cc1 | > 100 |  | 69.9
9 | Cc1noc(C)c1-c1ccc(-c2nc3ccc(Cl)cn3c2NCc2ccccc2)cc1 | 18.4 |  | 
10 | CCOC(=O)C(C)N(Cc1ccc(-c2c(C)noc2C)cc1)C(=O)c1ccc(OC)cc1 (centres undefined) |  |  | 16.3
11 | COc1ccc(Nc2c(-c3ccc(-c4c(C)noc4C)cc3)nc3ccccn23)cc1 | 7.36 |  | 
12 | Cc1noc(C)c1-c1ccc(-c2nc3cnccn3c2NC(C)(C)C)cc1F | 12.8 |  | 
13 | COc1ccc(Nc2c(-c3ccc(-c4c(C)noc4C)cc3)nc3ccc(Cl)cn23)cc1 | 20.7 |  | 
14 | Cc1noc(C)c1-c1ccc(-c2nc3cnccn3c2NC(C)C)cc1 | 0.494 |  | 
15 | Cc1noc(C)c1-c1ccc(-c2nc3cnccn3c2NCc2ccccc2)cc1 | 49.1 |  | 
16 | Cc1noc(C)c1-c1ccc(-c2nc3cnccn3c2NC(C)(C)C)cn1 | > 100 |  | 
17 | Cc1ccc2nc(-c3ccc(-c4c(C)noc4C)cc3)c(NCc3ccccc3)n2c1 |  |  | > 100
18 | Cc1noc(C)c1-c1ccc(C=O)cc1 |  |  | 1.7
19 | Cc1noc(C)c1-c1ccc(-c2nc3ccccn3c2NC2CCCCC2)cc1 | 5.07 |  | 
20 | CCOC(=O)[C@]1(C)NC(c2ccc(-c3c(C)noc3C)cc2)C2C(=O)N(CC)C(=O)C21 (some centres undefined) | 9.42 |  | 
21 | Cc1noc(C)c1-c1ccc(-c2nc3ccc(Cl)cn3c2NC(C)(C)C)cc1 | 2.19 |  | 
